Measurements published in ChEMBL document CHEMBL5543164 (J Med Chem, 2024).

What was measured:
[1] = biological target: Phosphatidylinositol 4,5-bisphosphate 3-kinase catalytic subunit gamma isoform (Homo sapiens, UniProt P48736); test: Inhibition of PI3Kgamma (unknown origin) by ADP-glo plus luminescence assay
[2] = biological target: Phosphatidylinositol 4,5-bisphosphate 3-kinase catalytic subunit beta isoform (Homo sapiens, UniProt P42338)
[3] = biological target: T1, Phosphatidylinositol 4,5-bisphosphate 3-kinase catalytic subunit delta isoform (Homo sapiens, UniProt O00329)
T1 sequence (O00329 whole entry): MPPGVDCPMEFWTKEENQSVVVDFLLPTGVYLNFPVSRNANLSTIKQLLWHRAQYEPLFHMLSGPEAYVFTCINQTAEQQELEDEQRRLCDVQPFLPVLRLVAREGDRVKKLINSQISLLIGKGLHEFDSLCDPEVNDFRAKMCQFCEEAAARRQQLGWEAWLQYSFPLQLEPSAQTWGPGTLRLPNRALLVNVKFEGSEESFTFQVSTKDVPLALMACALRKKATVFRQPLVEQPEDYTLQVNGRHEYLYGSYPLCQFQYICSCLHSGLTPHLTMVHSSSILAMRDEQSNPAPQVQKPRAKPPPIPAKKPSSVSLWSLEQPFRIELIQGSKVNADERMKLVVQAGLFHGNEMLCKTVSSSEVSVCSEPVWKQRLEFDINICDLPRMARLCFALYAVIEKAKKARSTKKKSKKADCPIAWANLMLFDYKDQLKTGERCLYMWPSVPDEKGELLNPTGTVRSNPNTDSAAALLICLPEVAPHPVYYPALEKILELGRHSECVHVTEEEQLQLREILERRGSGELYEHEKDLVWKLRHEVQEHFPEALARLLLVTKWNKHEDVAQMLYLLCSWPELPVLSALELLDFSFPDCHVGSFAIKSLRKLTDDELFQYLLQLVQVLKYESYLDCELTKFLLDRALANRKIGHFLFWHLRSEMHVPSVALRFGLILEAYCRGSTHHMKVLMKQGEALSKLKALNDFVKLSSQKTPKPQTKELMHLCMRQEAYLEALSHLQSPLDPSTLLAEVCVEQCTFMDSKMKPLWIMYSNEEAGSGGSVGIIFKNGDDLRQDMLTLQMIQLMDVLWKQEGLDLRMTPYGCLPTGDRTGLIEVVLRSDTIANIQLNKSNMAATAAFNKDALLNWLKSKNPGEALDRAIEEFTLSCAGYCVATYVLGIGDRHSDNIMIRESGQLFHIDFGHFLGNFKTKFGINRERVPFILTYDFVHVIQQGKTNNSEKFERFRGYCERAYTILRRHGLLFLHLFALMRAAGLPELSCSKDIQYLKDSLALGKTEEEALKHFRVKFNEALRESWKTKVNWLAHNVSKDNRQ

[4] = biological target: Serine/threonine-protein kinase mTOR (Homo sapiens, UniProt P42345)
[5] = tested on: MCF7; test: Antiproliferative activity against human MCF7 cells assessed as inhibition of cell growth incubated for 48 hrs by CCK-8 assay; format: functional, cell-based; details: MCF7, 48 h
[6] = tested on: MDA-MB-231; test: Antiproliferative activity against human MDA-MB-231 cells assessed as inhibition of cell growth incubated for 48 hrs by CCK-8 assay; format: functional, cell-based; details: MDA-MB-231, 48 h
[7] = tested on: HepG2; test: Antiproliferative activity against human HepG2 cells assessed as inhibition of cell growth incubated for 48 hrs by CCK-8 assay; format: functional, cell-based; details: HepG2, 48 h
[8] = tested on: HeLa; test: Antiproliferative activity against human HeLa cells assessed as inhibition of cell growth incubated for 48 hrs by CCK-8 assay; format: functional, cell-based
[9] = tested on: HCT-116; test: Antiproliferative activity against human HCT-116 cells assessed as inhibition of cell growth incubated for 48 hrs by CCK-8 assay; format: functional, cell-based; details: HCT-116, 48 h
[10] = tested on: CNE-2; test: Antiproliferative activity against human CNE-2 cells assessed as inhibition of cell growth incubated for 48 hrs by CCK-8 assay; format: functional, cell-based; details: CNE-2, 48 h
[11] = biological target: Phosphatidylinositol 4,5-bisphosphate 3-kinase catalytic subunit alpha isoform (Homo sapiens, UniProt P42336); test: Inhibition of PI3Kalpha (unknown origin) by ADP-glo plus luminescence assay
Sequence of Phosphatidylinositol 4,5-bisphosphate 3-kinase catalytic subunit alpha isoform (P42336 whole entry, canonical isoform): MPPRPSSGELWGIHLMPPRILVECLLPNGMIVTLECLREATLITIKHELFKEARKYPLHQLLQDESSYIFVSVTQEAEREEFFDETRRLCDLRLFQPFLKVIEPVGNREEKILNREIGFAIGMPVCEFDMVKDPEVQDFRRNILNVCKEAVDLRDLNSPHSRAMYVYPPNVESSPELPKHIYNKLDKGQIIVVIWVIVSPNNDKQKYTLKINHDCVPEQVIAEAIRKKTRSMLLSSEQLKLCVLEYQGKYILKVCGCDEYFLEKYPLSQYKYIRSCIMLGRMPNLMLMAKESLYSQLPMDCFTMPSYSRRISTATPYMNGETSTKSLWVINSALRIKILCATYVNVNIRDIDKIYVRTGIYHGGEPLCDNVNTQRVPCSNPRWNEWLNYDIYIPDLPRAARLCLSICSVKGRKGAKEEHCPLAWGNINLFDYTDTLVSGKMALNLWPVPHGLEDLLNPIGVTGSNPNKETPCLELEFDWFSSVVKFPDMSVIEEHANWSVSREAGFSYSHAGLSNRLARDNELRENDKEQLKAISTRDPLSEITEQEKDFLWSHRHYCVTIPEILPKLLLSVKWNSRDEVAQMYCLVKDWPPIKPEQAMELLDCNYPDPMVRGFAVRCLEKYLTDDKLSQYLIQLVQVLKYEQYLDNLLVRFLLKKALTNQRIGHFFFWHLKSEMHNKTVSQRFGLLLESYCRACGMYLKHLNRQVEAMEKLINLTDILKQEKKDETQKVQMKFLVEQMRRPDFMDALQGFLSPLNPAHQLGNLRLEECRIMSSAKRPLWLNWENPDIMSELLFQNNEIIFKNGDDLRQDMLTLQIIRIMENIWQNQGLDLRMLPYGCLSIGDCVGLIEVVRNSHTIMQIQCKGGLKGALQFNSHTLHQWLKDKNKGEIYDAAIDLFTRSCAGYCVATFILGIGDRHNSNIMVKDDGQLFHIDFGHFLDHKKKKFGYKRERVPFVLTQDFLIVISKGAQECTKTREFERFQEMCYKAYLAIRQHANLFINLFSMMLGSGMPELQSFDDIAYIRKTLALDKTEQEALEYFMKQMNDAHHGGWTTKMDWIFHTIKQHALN

[12] = tested on: MCF7; test: Induction of apoptosis in human MCF7 cells assessed as early apoptotic cells at 2.5 uM incubated for 24 hrs Annexin FITC/PI staining based flow cytometry analysis (reference value: 0.87%); format: functional
[13] = tested on: MCF7; test: Induction of apoptosis in human MCF7 cells assessed as late apoptotic cells at 2.5 uM incubated for 24 hrs Annexin FITC/PI staining based flow cytometry analysis (reference value: 5.84%); format: functional
[14] = tested on: MCF7; test: Induction of apoptosis in human MCF7 cells assessed as necrotic cells at 2.5 uM incubated for 24 hrs Annexin FITC/PI staining based flow cytometry analysis (reference value: 1.33%); format: functional
[15] = tested on: MCF7; test: Induction of apoptosis in human MCF7 cells assessed as early apoptotic cells at 5 uM incubated for 24 hrs Annexin FITC/PI staining based flow cytometry analysis (reference value: 0.87%); format: functional
[16] = tested on: MCF7; test: Induction of apoptosis in human MCF7 cells assessed as late apoptotic cells at 5 uM incubated for 24 hrs Annexin FITC/PI staining based flow cytometry analysis (reference value: 5.84%); format: functional
[17] = tested on: MCF7; test: Induction of apoptosis in human MCF7 cells assessed as necrotic cells at 5 uM incubated for 24 hrs Annexin FITC/PI staining based flow cytometry analysis (reference value: 1.33%); format: functional
[18] = tested on: MCF7; test: Induction of apoptosis in human MCF7 cells assessed as early apoptotic cells at 10 uM incubated for 24 hrs Annexin FITC/PI staining based flow cytometry analysis (reference value: 0.87%); format: functional
[19] = tested on: MCF7; test: Induction of apoptosis in human MCF7 cells assessed as late apoptotic cells at 10 uM incubated for 24 hrs Annexin FITC/PI staining based flow cytometry analysis (reference value: 5.84%); format: functional
[20] = tested on: MCF7; test: Induction of apoptosis in human MCF7 cells assessed as necrotic cells at 10 uM incubated for 24 hrs Annexin FITC/PI staining based flow cytometry analysis (reference value: 1.33%); format: functional
[21] = tested on: MCF7; test: Antitumor activity against human MCF7 cells xenografted in BALB/c mouse assessed as tumor size at 20 mg/kg, iv measured every 2 days for 19 days (reference value: 1178 +/- 246mm3); format: functional; details: time 19 day
[22] = tested on: MCF7; test: Antitumor activity against human MCF7 cells xenografted in BALB/c mouse assessed as tumor size at 20 mg/kg, iv administered as lipodisc encapsulated form measured every 2 days for 19 days (reference value: 1178 +/- 246mm3); format: functional; details: time 19 day
[23] = tested on: MCF7; test: Antitumor activity against human MCF7 cells xenografted in BALB/c mouse assessed as tumor growth inhibition at 20 mg/kg, iv measured every 2 days for 19 days; format: functional; details: MCF7, 456 h, time 19 day, read-out: TGI
[24] = tested on: MCF7; test: Antitumor activity against human MCF7 cells xenografted in BALB/c mouse assessed as tumor growth inhibition at 20 mg/kg, iv administered as lipodisc encapsulated form measured every 2 days for 19 days; format: functional; details: MCF7, 456 h, time 19 day, read-out: TGI
[25] = tested on: MCF7; details: dose 20 mg/kg; route iv; time 19 day
[26] = tested on: MCF7; details: dose 20 mg/kg; route iv; time 19 day; remark: listed apart in the source
[27] = tested on: MCF7; test: cells; details: Homo sapiens, MCF7, 24 h, read-out: Activity
[28] = tested on: MCF7; test: cells; details: Homo sapiens, MCF7, 24 h, read-out: Activity; remark: listed apart in the source
[29] = tested on: MCF7; test: cells; details: Homo sapiens, MCF7, 24 h, read-out: Activity; remark: listed apart in the source
[30] = in vivo; details: BALB/c, mouse, iv, 5 mg/kg
[31] = in vivo; details: BALB/c, mouse, iv, 5 mg/kg; remark: listed apart in the source
[32] = in vivo; details: BALB/c, mouse, iv, 5 mg/kg; remark: listed apart in the source
[33] = in vivo; details: BALB/c, mouse, iv, 5 mg/kg; remark: listed apart in the source
[34] = in vivo; details: BALB/c, mouse, iv, 5 mg/kg; remark: listed apart in the source
[35] = in vivo; details: BALB/c, mouse, iv, 5 mg/kg; remark: listed apart in the source
[36] = in vivo; details: BALB/c, mouse, iv, 5 mg/kg; remark: listed apart in the source
[37] = in vivo; details: BALB/c, mouse, iv, 5 mg/kg; remark: listed apart in the source
[38] = in vivo; details: BALB/c, mouse, iv
[39] = in vivo; details: BALB/c, mouse, iv; remark: listed apart in the source

Sequence of Phosphatidylinositol 4,5-bisphosphate 3-kinase catalytic subunit gamma isoform (P48736 whole entry, canonical isoform): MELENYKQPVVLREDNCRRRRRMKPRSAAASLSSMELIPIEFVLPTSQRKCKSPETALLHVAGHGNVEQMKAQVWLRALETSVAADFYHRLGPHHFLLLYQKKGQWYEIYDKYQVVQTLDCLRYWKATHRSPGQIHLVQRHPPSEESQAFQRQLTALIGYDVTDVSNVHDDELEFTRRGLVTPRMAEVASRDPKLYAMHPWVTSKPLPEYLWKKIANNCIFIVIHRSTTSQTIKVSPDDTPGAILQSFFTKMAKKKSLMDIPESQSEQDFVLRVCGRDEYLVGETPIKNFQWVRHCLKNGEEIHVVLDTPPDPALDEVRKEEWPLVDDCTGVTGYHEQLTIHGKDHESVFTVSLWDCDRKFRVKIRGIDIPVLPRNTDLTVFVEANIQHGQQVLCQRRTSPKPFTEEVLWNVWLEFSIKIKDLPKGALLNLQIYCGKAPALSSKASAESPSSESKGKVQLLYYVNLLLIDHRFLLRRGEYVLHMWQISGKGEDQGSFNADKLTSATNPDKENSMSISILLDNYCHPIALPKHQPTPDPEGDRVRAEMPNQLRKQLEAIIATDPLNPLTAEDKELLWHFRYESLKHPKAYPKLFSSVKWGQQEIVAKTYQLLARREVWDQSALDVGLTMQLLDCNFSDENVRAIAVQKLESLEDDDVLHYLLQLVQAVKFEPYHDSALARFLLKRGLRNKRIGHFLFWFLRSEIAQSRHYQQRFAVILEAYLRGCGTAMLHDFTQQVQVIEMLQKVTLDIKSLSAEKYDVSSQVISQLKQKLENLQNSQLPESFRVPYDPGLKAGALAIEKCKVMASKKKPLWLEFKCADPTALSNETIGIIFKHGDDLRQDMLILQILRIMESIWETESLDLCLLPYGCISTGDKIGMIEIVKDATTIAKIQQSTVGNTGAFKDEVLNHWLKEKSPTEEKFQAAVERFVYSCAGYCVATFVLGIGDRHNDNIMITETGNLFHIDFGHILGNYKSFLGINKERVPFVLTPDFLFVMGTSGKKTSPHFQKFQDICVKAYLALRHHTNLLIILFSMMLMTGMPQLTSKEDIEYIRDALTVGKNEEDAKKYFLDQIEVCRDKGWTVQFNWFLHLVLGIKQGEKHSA
Sequence of Phosphatidylinositol 4,5-bisphosphate 3-kinase catalytic subunit beta isoform (P42338 whole entry, canonical isoform): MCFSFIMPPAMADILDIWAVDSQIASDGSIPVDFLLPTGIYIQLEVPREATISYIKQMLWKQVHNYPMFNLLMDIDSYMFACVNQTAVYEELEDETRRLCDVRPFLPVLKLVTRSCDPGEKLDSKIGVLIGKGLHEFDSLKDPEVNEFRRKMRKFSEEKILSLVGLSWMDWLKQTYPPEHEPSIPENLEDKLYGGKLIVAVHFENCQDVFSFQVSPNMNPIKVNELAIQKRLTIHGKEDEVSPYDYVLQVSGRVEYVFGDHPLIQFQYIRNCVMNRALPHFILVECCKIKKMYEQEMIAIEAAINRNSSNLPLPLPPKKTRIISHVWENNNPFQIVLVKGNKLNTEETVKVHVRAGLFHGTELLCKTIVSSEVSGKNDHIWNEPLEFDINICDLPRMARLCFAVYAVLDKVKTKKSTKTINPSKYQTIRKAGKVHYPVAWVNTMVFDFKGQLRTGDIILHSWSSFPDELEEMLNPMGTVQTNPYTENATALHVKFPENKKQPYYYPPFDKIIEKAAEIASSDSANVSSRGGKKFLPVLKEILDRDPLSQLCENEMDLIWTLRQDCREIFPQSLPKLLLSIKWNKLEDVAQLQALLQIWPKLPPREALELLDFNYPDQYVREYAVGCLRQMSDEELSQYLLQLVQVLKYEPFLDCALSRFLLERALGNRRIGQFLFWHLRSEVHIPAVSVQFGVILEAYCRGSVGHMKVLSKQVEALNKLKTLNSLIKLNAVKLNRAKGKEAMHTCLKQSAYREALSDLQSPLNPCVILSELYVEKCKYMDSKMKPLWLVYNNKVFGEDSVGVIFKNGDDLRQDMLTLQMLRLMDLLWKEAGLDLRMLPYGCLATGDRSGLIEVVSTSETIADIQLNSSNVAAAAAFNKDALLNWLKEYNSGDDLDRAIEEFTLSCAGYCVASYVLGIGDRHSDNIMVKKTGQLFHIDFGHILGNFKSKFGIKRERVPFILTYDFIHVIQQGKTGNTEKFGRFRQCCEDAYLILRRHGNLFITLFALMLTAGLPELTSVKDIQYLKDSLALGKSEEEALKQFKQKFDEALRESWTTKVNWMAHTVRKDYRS

C[C@H]1COCCN1c1nc(-c2ccc(NC(=O)Nc3ccc4c(c3)COC4=O)cc2)nc(N2CCOCC2)n1
IC50 [1]: 725 nM | IC50 [2]: 754 nM | IC50 [3]: 1320 nM

CC(C)(C)OC(=O)N1CC2CCC(C1)N2c1nc(-c2ccc(NC(=O)Nc3ccc4c(c3)COC4=O)cc2)nc(N2CCOCC2)n1
IC50 [4]: 147 nM

C[C@H]1COCCN1c1nc(-c2ccc(NC(=O)Nc3ccc4c(c3)COC4=O)cc2)nc(N2C3CCC2COC3)n1
IC50 [5]: 1740 nM | IC50 [6]: 3440 nM | IC50 [7]: 5670 nM | IC50 [8]: 6030 nM | IC50 [9]: 5050 nM | IC50 [10]: 1080 nM | IC50 [4]: 4 nM

CC(C)(C)OC(=O)N1C(=O)c2ccc(NC(=O)Nc3ccc(-c4nc(N5CCOCC5)nc(N5CCOCC5)n4)cc3)cc2C1=O
IC50 [11]: 379 nM

O=C(Nc1ccc(-c2nc(N3CCOCC3)nc(N3C4CCC3CNC4)n2)cc1)Nc1ccc2c(c1)COC2=O
IC50 [5]: 1130 nM | IC50 [6]: 11900 nM | IC50 [7]: > 100000 nM | IC50 [8]: 12600 nM | IC50 [9]: 770 nM | IC50 [10]: 2270 nM | IC50 [4]: 20 nM

O=C(Nc1ccc(-c2nc(N3CCOCC3)nc(N3CCO[C@@H](CO)C3)n2)cc1)Nc1ccc2c(c1)COC2=O
IC50 [1]: 228 nM | IC50 [2]: 157 nM | IC50 [3]: 234 nM

CN(C)C1CCN(C(=O)c2ccc(NC(=O)Nc3ccc(-c4nc(N5CCOCC5)nc(N5CCOCC5)n4)cc3)cc2)CC1 [GEDATOLISIB]
Activity [12]: 0.68% | Activity [13]: 7.35% | Activity [14]: 1.59% | Activity [15]: 0.64% | Activity [16]: 8.41% | Activity [17]: 1.95% | Activity [18]: 0.82% | Activity [19]: 11.9% | Activity [20]: 1.77% | Activity [21]: 591 mm3 | Activity [22]: 559 mm3 | inhibition in vivo at 20 mg/kg [23]: 53.3% | inhibition in vivo at 20 mg/kg [24]: 55.9% | T/C [25]: 46.7% | T/C [26]: 44.1% | viability at 2.5 µM [27]: 90.4% | viability at 5 µM [28]: 89% | viability at 10 µM [29]: 85.5% | AUC(0-t) at 12 h [30]: 5280 ng·h/mL | AUC(0-t) at 12 h [31]: 31500 ng·h/mL | AUC(0-inf) at 12 h [32]: 5640 ng·h/mL | AUC(0-inf) at 12 h [33]: 32100 ng·h/mL | half-life at 12 h [34]: 1.3 h | half-life at 12 h [35]: 7.4 h | Cmax at 12 h [36]: 10700 ng/mL | Cmax at 12 h [37]: 44000 ng/mL | MTD at […] [38]: 20 mg/kg | MTD at […] [39]: 30 mg/kg
